Laboratory results from patent publication US7718406B2, “Substrates for TAFI (A)” (DSM IP Assets B.V., priority 2002, dated 2010).

Tests used:
carboxypeptidase B = molecular target: T1, carboxypeptidase B (Homo sapiens, UniProt P15086); assay: Splitting of thiaarginine and thialysine substrates by carboxypeptidase B; format: biochemical; settings: substrate final concentration 174 μM
T1 sequence (P15086 111-417): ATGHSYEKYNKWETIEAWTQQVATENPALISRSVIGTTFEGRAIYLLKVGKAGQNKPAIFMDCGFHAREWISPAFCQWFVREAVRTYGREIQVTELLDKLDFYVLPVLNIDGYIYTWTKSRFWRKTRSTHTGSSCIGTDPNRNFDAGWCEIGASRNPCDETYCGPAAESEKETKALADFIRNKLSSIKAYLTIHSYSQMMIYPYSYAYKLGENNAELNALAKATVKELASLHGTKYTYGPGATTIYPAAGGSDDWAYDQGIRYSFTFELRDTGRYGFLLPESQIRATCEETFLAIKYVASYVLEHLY
Procedure: [drawing 2] have been described as substrates for carboxypeptidase B (Bull. Korean. Chem. Soc. 1998, 19(2), 189-193). […] Detection of CPB by means of compound A is carried out according to the following Scheme 1.
(§1) • measure for 10 min at RT Results: • Splitting of thiaarginine and thialysine substrates (final concentration 174 μM) by TAFIa (final concentration 17 μg/ml) • in brackets the value for carboxypeptidase B • Substances of comparison A and B from Bull. Korean. Chem. Soc. 1998, 19(2), 189-193 • ΔE=Extinction variation at 405 nm

TAFIa = molecular target: T2, TAFIa (Homo sapiens, UniProt Q96IY4); assay: Splitting of thiaarginine and thialysine substrates by TAFIa (Ellman's reagent, absorption at 405-412 nm); format: biochemical; settings: substrate final concentration 174 μM; TAFIa final concentration 17 μg/ml; RT, 10 min; pH 7.4
T2 construct: purchased Enzyme Research Laboratory
T2 sequence (Q96IY4 115-423): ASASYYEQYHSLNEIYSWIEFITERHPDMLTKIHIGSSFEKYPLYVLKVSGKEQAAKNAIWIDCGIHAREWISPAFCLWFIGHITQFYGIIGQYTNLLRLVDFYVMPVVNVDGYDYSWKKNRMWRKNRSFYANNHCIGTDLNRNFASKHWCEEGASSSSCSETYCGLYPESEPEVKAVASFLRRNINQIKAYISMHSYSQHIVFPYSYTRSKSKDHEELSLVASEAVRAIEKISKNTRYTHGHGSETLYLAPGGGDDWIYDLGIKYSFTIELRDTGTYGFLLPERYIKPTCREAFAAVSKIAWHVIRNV
Procedure: Principle: TAFIa is determined as shown in Scheme 1. In a first step, the substrate is hydrolyzed by TAFIa in such a way that a thioamino acid (thiaarginine or thialysine) is released. These instable intermediates are rapidly decomposed into 2-mercaptoethylguanidine or 3-mercaptopropylamine, respectively. These mercapto compounds react with Ellman's reagent (5,5′-dithio-bis-(2-nitrobenzoic acid)), thereby releasing the strongly yellow 3-carboxy-4-nitrothiophenol that can be measured using a spectrophotometer at 405-412 nm. The free thiol content measured is directly proportional to the quantity of substrate hydrolyzed by TAFIa and thereby allows a quantitative analysis of the enzyme activity.
Enzyme assay: The enzyme activity is measured at room temperature by using a 10 mM substrate stock solution in DMSO. TAFI of human origin can be obtained in a stock solution of 360 μg/ml from Enzyme Research Laboratory or over blood plasma. Activation of TAFI to TAFIa occurred with thrombin (2.7 U/ml), the activation of which was produced with 30 μg of thrombomodulin. Excessive thrombin activity was eliminated by adding the synthetic inhibitor NAPAP. The measurement was performed on microtiter plates.
The absorption increase at 405-412 nm was recorded for 10 minutes.
in buffer (20 mM HEPES, 5 mM CaCl2, 0.01% Tween 80; pH 7.4) • incubate for 5 min at 25° C. Measurement:
as §1

| Molecule | ΔE/min (extinction variation at 405 nm), value in brackets for carboxypeptidase B (carboxypeptidase B) | ΔE/min (extinction variation at 405 nm), splitting by TAFIa (TAFIa) |
| --- | --- | --- |
| Cl.N=C(N)NCCSC(NC(=O)[C@H](CCCCNC(=O)OCc1ccccc1)NC(=O)c1ccccc1)C(=O)O (stereo partly drawn) [No. 4269, benzoyl-(L)-lysyl-(ε-benzyloxycarbonyl)-α-(D,L)-(2-guanidinoethylthio)-glycine hydrochloride salt] | (0.018) ΔE/min | 0.108 ΔE/min |
| Boc-K(Z)-G(GUS)-OH × TFA [No. 4275] | (0.028) ΔE/min | 0.041 ΔE/min |
| Boc-K(Tos)-G(GUS)-OH × HCl [No. 4273] | (0.048) ΔE/min | 0.014 ΔE/min |
| Boc-F-K(Boc)-G(GUS)-OH × HCl [No. 4298] | (0.034) ΔE/min | 0.043 ΔE/min |

Other lines, results leading:

| ΔE/min (extinction variation at 405 nm), value in brackets for carboxypeptidase B (carboxypeptidase B) | ΔE/min (extinction variation at 405 nm), splitting by TAFIa (TAFIa) | Molecule |
| --- | --- | --- |
| (0.059) ΔE/min | 0.042 ΔE/min | Z-A-K(Boc)-G(GUS)-OH × HCl [No. 4302] |
| – | 0.034 ΔE/min | Bz-V-G(GUS)-OH × TFA [No. 4334] |
| – | 0.054 ΔE/min | Boc-K(Z)-G(α-SPrA)-OH × TFA [No. 4341] |
| – | 0.055 ΔE/min | NCCCSC(NC(=O)[C@H](CCCCNC(=O)OCc1ccccc1)NC(=O)c1ccccc1)C(=O)O.O=C(O)C(F)(F)F (stereo partly drawn) [No. 4339, benzoyl-(L)-lysyl-(ε-benzyloxycarbonyl)-α-(D,L)-(3-aminopropylthio)-glycine trifluoracetic acid salt] |
| (0.072) ΔE/min | 0.012 ΔE/min | Bz-P-K(Boc)-G(GUS)-OH × TFA [No. 4300] |
| – | 0.053 ΔE/min | Bz-V-G(α-SPrA)-OH × TFA [No. 4336] |
